According to ChEMBL document CHEMBL1143968, “Lead identification of acetylcholinesterase inhibitors-histamine H3 receptor antagonists from molecular modeling” (Bioorg Med Chem, 2008):

What was measured:
Histamine H3 receptor = Histamine H3 receptor (Homo sapiens, UniProt Q9Y5N1); assay: Inhibition of histamine H3 receptor
Acetylcholinesterase = Acetylcholinesterase (Homo sapiens, UniProt P22303); assay: Inhibition of AChE
Chain of Acetylcholinesterase (P22303 whole entry): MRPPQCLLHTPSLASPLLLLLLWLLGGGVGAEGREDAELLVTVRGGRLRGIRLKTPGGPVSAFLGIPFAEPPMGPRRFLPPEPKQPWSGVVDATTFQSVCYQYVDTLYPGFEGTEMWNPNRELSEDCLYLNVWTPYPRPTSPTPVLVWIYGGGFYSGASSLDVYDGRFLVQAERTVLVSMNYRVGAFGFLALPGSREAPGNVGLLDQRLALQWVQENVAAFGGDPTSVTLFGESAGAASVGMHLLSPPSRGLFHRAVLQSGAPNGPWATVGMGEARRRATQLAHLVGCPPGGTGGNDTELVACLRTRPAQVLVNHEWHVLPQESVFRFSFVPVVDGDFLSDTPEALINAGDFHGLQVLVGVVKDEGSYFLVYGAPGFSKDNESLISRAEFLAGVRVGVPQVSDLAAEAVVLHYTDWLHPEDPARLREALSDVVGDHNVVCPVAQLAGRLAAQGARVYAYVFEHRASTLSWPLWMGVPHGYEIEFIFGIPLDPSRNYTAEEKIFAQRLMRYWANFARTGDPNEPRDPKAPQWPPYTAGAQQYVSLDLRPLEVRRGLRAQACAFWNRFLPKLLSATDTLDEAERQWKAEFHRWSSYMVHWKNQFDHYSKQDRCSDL

Chain of Histamine H3 receptor (Q9Y5N1 whole entry): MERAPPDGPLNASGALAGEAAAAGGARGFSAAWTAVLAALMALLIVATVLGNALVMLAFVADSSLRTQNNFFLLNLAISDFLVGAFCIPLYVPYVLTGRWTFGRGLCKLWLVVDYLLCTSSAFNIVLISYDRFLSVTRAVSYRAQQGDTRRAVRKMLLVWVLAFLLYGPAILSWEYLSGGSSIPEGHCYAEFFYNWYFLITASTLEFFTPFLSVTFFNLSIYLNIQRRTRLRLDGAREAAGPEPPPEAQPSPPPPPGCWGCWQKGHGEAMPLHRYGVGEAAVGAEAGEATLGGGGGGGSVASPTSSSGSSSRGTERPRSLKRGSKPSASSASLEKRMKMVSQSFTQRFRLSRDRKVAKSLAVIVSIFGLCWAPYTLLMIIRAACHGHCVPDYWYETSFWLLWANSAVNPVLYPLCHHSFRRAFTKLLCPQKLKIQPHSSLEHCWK

OCCC1CCN(Cc2ccc(OCCCN3CCCCC3)cc2)CC1 was tested, and the IC50 (Histamine H3 receptor) was 0.98 nM and the IC50 (Acetylcholinesterase) was 350 nM.
Work on COc1cc2c(cc1OC)C(=O)C(CC1CCN(Cc3ccccc3)CC1)C2 (stereo not given) [DONEPEZIL] yielded an IC50 (Histamine H3 receptor) of 350 nM.
Compound c1cc(OCCCN2CCCCC2)ccc1CN1CCCCC1 [JNJ-5207852] has an IC50 (Acetylcholinesterase) of 3200 nM.
OC1CCN(Cc2ccc(OCCCN3CCCCC3)cc2)CC1 showed an IC50 (Histamine H3 receptor) of 0.72 nM and an IC50 (Acetylcholinesterase) of 2300 nM.
Compound C[N+](C)(C)CCCCCCCCCC[N+](C)(C)C [DECAMETHONIUM] has an IC50 (Histamine H3 receptor) of 820 nM and an IC50 (Acetylcholinesterase) of 5900 nM.
With OCC1CCN(Cc2ccc(OCCCN3CCCCC3)cc2)CC1 the IC50 (Histamine H3 receptor) was 1.3 nM and the IC50 (Acetylcholinesterase) was 1100 nM.
